Measured values published in paper PMC10893631, “Receptor-based pharmacophore modeling, molecular docking, synthesis and biological evaluation of novel VEGFR-2, FGFR-1, and BRAF multi-kinase inhibitors” (BMC Chemistry, 2024).

Assays:
BRAF (WT) = biological target: T1, BRAF (WT) (Homo sapiens, UniProt P15056); assay: BRAF kinase assay kit (BPS), Kinase-Glo Max luminescence; format: biochemical
T1 construct: purchased BPS Biosciences 78316
Description: (§1) 2. Biochemical kinase assay procedure
The inhibitory activity against different kinases was determined using kinase kits […]
from BPS Biosciences and kinase-Glo Max luminescence kinase assay kit (Promega).
(§2) The assay was carried out according to the protocol provided by the manufacturer. A stock solution of the synthesized derivatives in 100% DMSO was prepared. Subsequently, the compounds were diluted to 10% DMSO.
(§3) A master mixture was prepared according to the number of wells. For VEGFR-2 and FGFR-1 biochemical assays each well include 6 μl of 5x Kinase Buffer 1 + 1 μl of 500 μM ATP + 1 μl of PTK Substrate (Poly-Glu,Tyr 4:1) (10 mg/ml) + 17 μl of distilled water. […]
(§4) The plate was incubated at 30 °C for 45 min. Subsequently, 50 μl of Kinase-Glo Max luminescence reagent was added to each well and the plate was covered with aluminum foil and incubated at room temperature 15 min. Finally, the luminescence was recorded using multimode microplate reader. […]
(§5) The luminescence data were analyzed as follows. The difference between luminescence intensities in the absence of kinase (Lut) and in the presence of kinase (Luc) was defined as 100 % activity (Lut – Luc). Using luminescence signal (Lu) in the presence of the compound, % activity was calculated as: % activity = {(Lut - Lu)/(Lut - Luc)}×100%. […]

MCF-7 cells [1] = assay: Annexin V-FITC apoptosis assay; format: cell-based; conditions: MCF-7, at GI50 concentration
Description: As previously reported, the Annexin V-FITC apoptosis detection kit (Abcam Inc., Cambridge, UK) in conjunction with two fluorescent channels flow cytometry was used to identify the populations of apoptosis and necrosis cells. (For further details see Additional file 1: section II: practical results). […]
(§6) MCF-7: Breast Adenocarcinoma was obtained from Nawah Scientific Inc., (Mokatam, Cairo, Egypt). Cells were maintained in DMEM media supplemented with […] of streptomycin, 100 units/mL of penicillin and 10% of heat-inactivated fetal bovine serum in humidified, 5% (v/v) CO2 atmosphere at 37 °C. […]
Biosciences Inc., San Diego, CA, USA). […]
Apoptosis and necrosis cell populations are determined using Annexin V-FITC apoptosis detection kit (Abcam Inc., Cambridge Science Park, Cambridge, UK) coupled with 2 fluorescent channels flowcytometry. After treatment with test compounds for 48h, cells (105 […]
trypsinization and washed twice with ice-cold PBS (pH 7.4). Then, cells are incubated in dark with 0.5 ml of Annexin V-FITC/PI solution for 30 min in dark at room temperature according to manufacturer protocol. After staining, cells are injected via ACEA

FGFR-1 = biological target: T2, FGFR-1 (Homo sapiens, UniProt P11362); assay: FGFR-1 kinase assay kit (BPS), Kinase-Glo Max luminescence; format: biochemical
T2 construct: purchased BPS Biosciences 40210
T2 sequence (P11362 22-822): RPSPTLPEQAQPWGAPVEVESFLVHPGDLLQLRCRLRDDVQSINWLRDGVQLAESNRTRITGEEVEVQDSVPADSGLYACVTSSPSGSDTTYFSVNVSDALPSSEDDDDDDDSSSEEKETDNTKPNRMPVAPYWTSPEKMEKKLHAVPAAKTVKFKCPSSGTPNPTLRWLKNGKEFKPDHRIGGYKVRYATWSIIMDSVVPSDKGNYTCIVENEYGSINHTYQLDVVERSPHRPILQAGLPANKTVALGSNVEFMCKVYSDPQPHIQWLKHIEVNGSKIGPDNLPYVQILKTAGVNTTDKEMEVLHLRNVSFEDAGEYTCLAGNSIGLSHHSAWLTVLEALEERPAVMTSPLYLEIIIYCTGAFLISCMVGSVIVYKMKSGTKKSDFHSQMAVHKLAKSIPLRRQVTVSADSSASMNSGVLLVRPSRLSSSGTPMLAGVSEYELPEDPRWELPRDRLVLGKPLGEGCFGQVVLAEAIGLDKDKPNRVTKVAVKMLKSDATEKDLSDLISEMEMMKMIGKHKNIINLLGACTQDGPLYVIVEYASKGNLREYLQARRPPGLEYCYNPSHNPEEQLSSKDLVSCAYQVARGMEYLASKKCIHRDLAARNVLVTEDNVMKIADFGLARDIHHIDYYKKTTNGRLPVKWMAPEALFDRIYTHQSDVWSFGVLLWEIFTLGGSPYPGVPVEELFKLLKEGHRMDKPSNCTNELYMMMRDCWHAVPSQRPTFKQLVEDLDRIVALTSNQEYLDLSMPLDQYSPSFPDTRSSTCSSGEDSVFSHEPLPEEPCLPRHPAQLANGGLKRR
Description: as §1
The inhibitory activity against different kinases was determined using kinase kits (VEGFR-2 cat ID: 40325), (FGFR-1 cat ID: 40210), (BRAF (WT) cat. ID: 78316); purchased from BPS Biosciences and kinase-Glo Max luminescence kinase assay kit (Promega).
as §2, §3, §4, §5

MCF-7 cells [2] = assay: Cell cycle analysis by PI flow cytometry; format: cell-based; conditions: MCF-7, at GI50 concentration
Description: After the cells were handled as previously described, the distribution of the cells at each stage of the cell cycle was analysed. (For further details see Additional file 1: section II: practical results).
6. Analysis of Cell Cycle Distribution
as §6
cells) are collected by trypsinization and washed twice with ice-cold PBS (pH 7.4). Cells are re-suspended in two milliliters of 60% ice-cold ethanol and incubated at 4 °C for 1 h for fixation. Fixed cells are washed twice again with PBS (pH 7.4) and re-suspended in 1 mL of PBS containing 50 µg/mL RNAase A and 10 µg/mL propidium iodide (PI). After 20 min of incubation in dark at 37 C, cells are analyzed for DNA contents using flow cytometry analysis using FL2 (λex/em 535/617 nm) signal detector (ACEA Novocyte™ flowcytometer, ACEA Biosciences Inc., San Diego, CA, USA). For each sample, 12,000 events are acquired.
Cell cycle distribution is calculated using ACEA NovoExpress™ software (ACEA Biosciences Inc., San Diego, CA, USA).
*G0/G1-phase: This phase denotes the non-proliferating cells. Compounds with antiproliferative effect (regardless of their cytotoxicity) are expected to increase this cell […]
*S-phase: This phase denotes proliferating cells and particularly the cells who are undergoing DNA synthesis step of replication. Some compounds might induce S-phase […]
*G2/M-phase: This phase indicates the final phase of cell replication (mitosis). […]

T1 sequence (P15056 whole entry): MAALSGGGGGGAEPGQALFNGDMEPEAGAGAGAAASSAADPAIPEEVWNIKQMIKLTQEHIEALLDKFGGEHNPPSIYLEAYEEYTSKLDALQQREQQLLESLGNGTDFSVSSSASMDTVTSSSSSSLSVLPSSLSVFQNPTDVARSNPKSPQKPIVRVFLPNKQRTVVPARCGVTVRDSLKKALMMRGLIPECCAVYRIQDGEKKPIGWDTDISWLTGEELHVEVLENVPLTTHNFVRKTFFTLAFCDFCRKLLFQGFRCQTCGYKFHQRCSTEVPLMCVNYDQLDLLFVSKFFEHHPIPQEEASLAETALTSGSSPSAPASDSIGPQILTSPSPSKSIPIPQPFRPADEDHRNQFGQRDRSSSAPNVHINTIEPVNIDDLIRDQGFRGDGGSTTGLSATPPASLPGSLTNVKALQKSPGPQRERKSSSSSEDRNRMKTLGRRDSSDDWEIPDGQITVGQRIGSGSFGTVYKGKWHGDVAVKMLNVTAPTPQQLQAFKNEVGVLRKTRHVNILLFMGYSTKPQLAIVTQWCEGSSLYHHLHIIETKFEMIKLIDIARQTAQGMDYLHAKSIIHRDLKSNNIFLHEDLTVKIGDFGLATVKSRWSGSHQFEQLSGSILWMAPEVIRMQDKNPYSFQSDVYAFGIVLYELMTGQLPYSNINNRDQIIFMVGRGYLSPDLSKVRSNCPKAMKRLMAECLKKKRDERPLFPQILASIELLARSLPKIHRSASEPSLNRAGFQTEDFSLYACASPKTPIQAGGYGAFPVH

## COc1cc(C=NNC(=O)c2ccc3[nH]c(-c4ccc(Cl)cc4)nc3c2)cc(OC)c1OC [8u, 2-(4-Chlorophenyl)-N'-(3,4,5-trimethoxybenzylidene)-1H-benzo[d]imidazole-5-carbohydrazide]
BRAF (WT)
  IC50: 250 ± 30 nM
MCF-7 cells [1]
  apoptosis induction: induces cell apoptosis in MCF-7 cell line
MCF-7 cells [1]; 48h
  % necrotic cells (Q2-1): 1.09%
  % viable cells (Q2-3): 92.92%
MCF-7 cells [1]; 48h, control 0.25%
  % of cells in early apoptosis (Q2-4): 1.46%
MCF-7 cells [1]; 48h, control 2.36%
  % of cells in late apoptosis (Q2-2): 4.54%
FGFR-1
  IC50: 3.74 ± 0.34 µM
MCF-7 cells [2]
  cell cycle arrest: arrests the MCF-7 cell line at the G2/M phase
MCF-7 cells [2]; 48h, control 2.64
  %Sub-G1: 4.40%
MCF-7 cells [2]; 48h, control 20.60
  %G2/M: 25.57%
MCF-7 cells [2]; 48h, control 23.10
  %S: 29.11%
MCF-7 cells [2]; 48h, control 56.30
  %G0/G1: 45.32%
